Source: US20080194630A1, “LTA4H modulators and uses thereof” (priority 2007, published 2008)

What was measured:
[1] = tested on: ionophore-induced LTB4 production; settings: oral administration; cited from earlier work
[2] = tested on: ionophore-induced LTB4 production; settings: oral administration; cited from earlier work; remark: listed apart in the source
[3] = tested on: ex vivo stimulated LTB4 production; test: Murine arachidonic acid-induced inflammation model: ex vivo stimulated LTB4 production in blood; parameters: species or system female Balb/c mice; settings: 30 mg/kg oral gavage, blood taken 3 h after arachidonic acid, ex vivo A23187 stimulation, vs animals without inhibitor
Description: Murine arachidonic acid-induced inflammation model
LTA4H inhibitor compounds of the present invention were dissolved in 20% cyclodextran/H2O at a concentration of 3 mg/mL. The solutions were administered by oral gavage to female Balb/c mice weighing approximately 20 grams each (0.2 mL per mouse, 30 mg of LTA4H inhibitor compound per kg). Sixty minutes after being administered an LTA4 inhibitor, each mouse received topical application of 20 μL of arachidonic acid (100 mg/mL in acetone) to the left ear and 20 μL of acetone only to the right ear. After 3 h, the mice were sacrificed, blood was withdrawn in heparinized syringes, and 8 mm ear biopsies were taken. […]
One hundred-microliter aliquots of heparinized blood were added to wells of a microtiter plate, along with equal volumes of RPMI-1640 medium, and calcium ionophore A23187 was added to each sample well (final concentration=20 ng/μL). […] Supernatants were analyzed for LTB4 by a commercially available enzyme-linked immunoassay (Cayman Chemical Co.) in accordance with the manufacturer's instructions. The percent inhibition of ex vivo stimulated LTB4 production (% Inh. LTB4) was determined by comparison to animals treated identically except that the solution admininstered by oral gavage was devoid of inhibitor compound.

[4] = tested on: neutrophil influx (myeloperoxidase, MPO); test: Murine arachidonic acid-induced inflammation model: neutrophil influx in ear (myeloperoxidase activity); type: in vivo, female Balb/c mice; settings: Mus musculus, 30 mg/kg oral gavage 60 min before topical arachidonic acid, ear biopsy after 3 h, vs animals without inhibitor
Description: Murine arachidonic acid-induced inflammation model LTA4H inhibitor compounds of the present invention were dissolved in 20% cyclodextran/H2O at a concentration of 3 mg/mL. The solutions were administered by oral gavage to female Balb/c mice weighing approximately 20 grams each (0.2 mL per mouse, 30 mg of LTA4H inhibitor compound per kg). Sixty minutes after being administered an LTA4 inhibitor, each mouse received topical application of 20 μL of arachidonic acid (100 mg/mL in acetone) to the left ear and 20 μL of acetone only to the right ear. After 3 h, the mice were sacrificed, blood was withdrawn in heparinized syringes, and 8 mm ear biopsies were taken. Ear biopsies were weighed to determine edema and then frozen at -80° C. until needed for determination of neutrophil influx. Neutrophil influx was quantified by measuring the activity of myeloperoxidase (MPO), a neutrophil-specific enzyme. […] Debris was removed by centrifugation at 14000×g for 10 min. […] The microtiter plate contents were held at room temperature for 1 h. […] H2SO4 to each sample well, and the myeloperoxidase activity in each sample was determined from the absorbance at 405 nm. […] The percent inhibition of neutrophil influx (% Inh. MPO) by compounds of the invention was determined by comparison to animals treated identically, except that the solution administered by oral gavage was devoid of inhibitor compound.

[5] = tested on: LTB4 production in murine whole blood (LTA4H); test: LTB4 production by calcium ionophore-stimulated murine blood for LTA4H inhibitor activity; type: cell-based, CD-1 mice; settings: CD-1 mouse blood diluted 1:15, calcium ionophore A23187 20 ng/mL, LTB4 by enzyme-linked immunoassay
[6] = tested on: atopic dermatitis; settings: small open-label trial in AD; cited from earlier work
[7] = tested on: pruritus; settings: human, in vivo; cited from earlier work

In the case of `CN(CCCOc1ccc(Cc2ccccc2)cc1)CCC(=O)O.Cl` [SC57461], the “ionophore-induced LTB4 production in mouse blood ex vivo” value [1] is listed as “caused inhibition” and the “ionophore-induced LTB4 production in rat peritoneum in vivo” value [2] is listed as “caused inhibition”.
In the case of `O=C(O)C1CCN(Cc2ccc(Oc3nc4ccccc4s3)cc2)CC1` [Example 250, 1-[4-(Benzothiazol-2-yloxy)-benzyl]-piperidine-4-carboxylic acid], the “% Inh. LTB4” value [3] is reported as 80%.
Compound `CC(C)N(CCC(=O)O)CCc1ccc(Oc2nc3ccccc3s2)cc1` [Example 180, 3-({2-[4-(Benzothiazol-2-yloxy)-phenyl]-ethyl}-isopropyl-amino)-propionic acid] has an inhibition at 30 mg/kg [4] of 87%, an IC50 [5] of 15 nM and an inhibition at 30 mg/kg ([3]; Mus musculus, read-out: % Inh. LTB4) of 87%.
For `CC(c1cc2ccccc2s1)N(O)C(N)=O` (centres unmarked) [zileuton], the “effects in atopic dermatitis” value [6] is given as “beneficial effects” and the “pruritus in Sjögren-Larsson syndrome patients” value [7] is given as “relieving the pruritus”.
